PubChem BioAssay AID1918948 (Molecular Pharmacology Branch, DTP, NCI, 2023)
Several values for one entry are separate records, joined by “and”; a condition that tells them apart may be missing. Equal values may be shown once. Values belong to the molecule of their own block, whether it stands above or below them.

System: K-562 leukemia growth, % test/control
Test: Anticancer human tumor K-562 cell line growth inhibition;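 also: spheroids exposed to compounds for 7 days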;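 as to viability, T/C: 100% = DMSO vehicle wells and lower values mean fewer viable cells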
Conditions: spheroids with HUVEC and MSC; for viability, T/C: stronger effect = lower value
Method in brief: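 Drug combinations with the LSD1 inhibitor iadademstat tested on tumor cells co-cultured as spheroids with endothelial cells and mesenchymal stem cells. Concentrations descended in half-log increments from clinical Cmax or 10 microM.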

[1] = curve of first compound, second compound 0.1 µM
[2] = curve of first compound, second compound 0.316 µM
[3] = curve of first compound, second compound 1 µM
[4] = curve of first compound, second compound 3.16 µM
[5] = curve of first compound, second compound 10 µM
[6] = second compound 0.1 µM, first compound 0.00316 µM
[7] = second compound 0.1 µM, first compound 0.01 µM
[8] = second compound 0.1 µM, first compound 0.0316 µM
[9] = second compound 0.1 µM, first compound 0.1 µM
[10] = second compound 0.1 µM, first compound 0.316 µM
[11] = second compound 0.1 µM, first compound 1 µM
[12] = second compound 0.316 µM, first compound 0.00316 µM
[13] = second compound 0.316 µM, first compound 0.01 µM
[14] = second compound 0.316 µM, first compound 0.0316 µM
[15] = second compound 0.316 µM, first compound 0.1 µM
[16] = second compound 0.316 µM, first compound 0.316 µM
[17] = second compound 0.316 µM, first compound 1 µM
[18] = second compound 1 µM, first compound 0.00316 µM
[19] = second compound 1 µM, first compound 0.01 µM
[20] = second compound 1 µM, first compound 0.0316 µM
[21] = second compound 1 µM, first compound 0.1 µM
[22] = second compound 1 µM, first compound 0.316 µM
[23] = second compound 1 µM, first compound 1 µM
[24] = second compound 3.16 µM, first compound 0.00316 µM
[25] = second compound 3.16 µM, first compound 0.01 µM
[26] = second compound 3.16 µM, first compound 0.0316 µM
[27] = second compound 3.16 µM, first compound 0.1 µM
[28] = second compound 3.16 µM, first compound 0.316 µM
[29] = second compound 3.16 µM, first compound 1 µM
[30] = second compound 10 µM, first compound 0.00316 µM
[31] = second compound 10 µM, first compound 0.01 µM
[32] = second compound 10 µM, first compound 0.0316 µM
[33] = second compound 10 µM, first compound 0.1 µM
[34] = second compound 10 µM, first compound 0.316 µM
[35] = second compound 10 µM, first compound 1 µM

Compound: Nc1ccn(C2OC(CO)C(O)C2(F)F)c(=O)n1 (stereo not given)
viability, T/C (compound 0.000949 µM): 45.4% and 98.6% | viability, T/C (compound 0.003 µM): 18.2% and 91.7% | viability, T/C (compound 0.00949 µM): 14.6% and 51.5% | viability, T/C (compound 0.03 µM): 13.6% and 21% | viability, T/C (compound 0.0949 µM): 15.1% and 19.3% | viability, T/C (compound 0.3 µM): 13.9% and 16.9%

Compound: COc1cc(Nc2ncc3c(n2)-c2ccc(Cl)cc2C(c2c(F)cccc2OC)=NC3)ccc1C(=O)O + NC1CC1c1ccc(-c2cccc(O)c2)cc1
IC50 [1]: < 3.16 nM | IC50 [2]: < 3.16 nM | IC50 [3]: < 3.16 nM | IC50 [4]: < 3.16 nM | IC50 [5]: < 3.16 nM | viability, T/C [6]: 31.1% | viability, T/C [7]: 35.4% | viability, T/C [8]: 35.4% | viability, T/C [9]: 27.7% | viability, T/C [10]: 11.1% | viability, T/C [11]: 5.75% | viability, T/C [12]: 22.8% | viability, T/C [13]: 27.5% | viability, T/C [14]: 27.8% | viability, T/C [15]: 18.3% | viability, T/C [16]: 8.22% | viability, T/C [17]: 4.56% | viability, T/C [18]: 20.2% | viability, T/C [19]: 24.4% | viability, T/C [20]: 22.4% | viability, T/C [21]: 13.9% | viability, T/C [22]: 6.56% | viability, T/C [23]: 4.05% | viability, T/C [24]: 15.5% | viability, T/C [25]: 21% | viability, T/C [26]: 21.4% | viability, T/C [27]: 14% | viability, T/C [28]: 6.72% | viability, T/C [29]: 4.65% | viability, T/C [30]: 10% | viability, T/C [31]: 16.6% | viability, T/C [32]: 20.3% | viability, T/C [33]: 11.9% | viability, T/C [34]: 6.15% | viability, T/C [35]: 3.42%

Compound: O=C(C=Cn1cnc(-c2cc(C(F)(F)F)cc(C(F)(F)F)c2)n1)NNc1cnccn1 + NC1CC1c1ccc(-c2cccc(O)c2)cc1
IC50 [1]: 115 nM | IC50 [2]: 76.5 nM | IC50 [3]: 67.6 nM | IC50 [4]: 66.7 nM | IC50 [5]: 50.2 nM | viability, T/C [6]: 106% | viability, T/C [7]: 103% | viability, T/C [8]: 93.5% | viability, T/C [9]: 56.2% | viability, T/C [10]: 9.94% | viability, T/C [11]: 1.19% | viability, T/C [12]: 106% | viability, T/C [13]: 103% | viability, T/C [14]: 83.1% | viability, T/C [15]: 40.1% | viability, T/C [16]: 9.06% | viability, T/C [17]: 1.23% | viability, T/C [18]: 102% | viability, T/C [19]: 96.4% | viability, T/C [20]: 80.7% | viability, T/C [21]: 34% | viability, T/C [22]: 8.67% | viability, T/C [23]: 1.78% | viability, T/C [24]: 97% | viability, T/C [25]: 94.9% | viability, T/C [26]: 73.4% | viability, T/C [27]: 37.6% | viability, T/C [28]: 8.04% | viability, T/C [29]: 1.27% | viability, T/C [30]: 91.4% | viability, T/C [31]: 91.3% | viability, T/C [32]: 59.8% | viability, T/C [33]: 32.7% | viability, T/C [34]: 6.57% | viability, T/C [35]: 2.98%

Compound: CC(C)CC(NC(=O)C(Cc1ccccc1)NC(=O)c1cnccn1)B(O)O (stereo not given) + NC1CCC(NC2CC2c2ccccc2)CC1
IC50 [1]: 1.9 nM | IC50 [2]: 1.94 nM | IC50 [3]: 1.95 nM | IC50 [4]: 1.77 nM | IC50 [5]: 0.977 nM | viability, T/C (second compound 0.1 µM, first compound 0.000316 µM): 99% | viability, T/C (second compound 0.1 µM, first compound 0.001 µM): 101% | viability, T/C [6]: 10.2% | viability, T/C [7]: 2.14% | viability, T/C [8]: 1.84% | viability, T/C [9]: 0.67% | viability, T/C (second compound 0.316 µM, first compound 0.000316 µM): 99.3% | viability, T/C (second compound 0.316 µM, first compound 0.001 µM): 102% | viability, T/C [12]: 12.7% | viability, T/C [13]: 2.31% | viability, T/C [14]: 0.86% | viability, T/C [15]: 2.09% | viability, T/C (second compound 1 µM, first compound 0.000316 µM): 104% | viability, T/C (second compound 1 µM, first compound 0.001 µM): 101% | viability, T/C [18]: 13.5% | viability, T/C [19]: 1.19% | viability, T/C [20]: 1.68% | viability, T/C [21]: 1.1% | viability, T/C (second compound 3.16 µM, first compound 0.000316 µM): 105% | viability, T/C (second compound 3.16 µM, first compound 0.001 µM): 87.8% | viability, T/C [24]: 11.7% | viability, T/C [25]: 1.18% | viability, T/C [26]: 2.66% | viability, T/C [27]: 0.99% | viability, T/C (second compound 10 µM, first compound 0.000316 µM): 97.1% | viability, T/C (second compound 10 µM, first compound 0.001 µM): 49% | viability, T/C [30]: 9.37% | viability, T/C [31]: 1.01% | viability, T/C [32]: 0.67% | viability, T/C [33]: 1.77%

IC50 (curve of compound): 2.23 nM and 7.98 nM
Compound: CC[C@@]1(O)C(=O)OCc2c1cc1n(c2=O)Cc2cc3c(CN(C)C)c(O)ccc3nc2-1
viability, T/C (compound 0.000316 µM): 98.4% and 100% | viability, T/C (compound 0.001 µM): 71.1% and 99.8% | viability, T/C (compound 0.00316 µM): 34.6% and 58.8% | viability, T/C (compound 0.01 µM): 32.6% and 50.7% | viability, T/C (compound 0.0316 µM): 20.8% and 24.8% | viability, T/C (compound 0.1 µM): 11.2%

IC50 (curve of compound): 9470 nM and > 10000 nM
Compound: O=C(c1cc(Cc2n[nH]c(=O)c3ccccc23)ccc1F)N1CCN(C(=O)C2CC2)CC1
viability, T/C (compound 0.0316 µM): 97% and 101% | viability, T/C (compound 0.1 µM): 99.8% and 101% | viability, T/C (compound 0.316 µM): 99% and 103% | viability, T/C (compound 1 µM): 97.1% and 101% | viability, T/C (compound 3.16 µM): 88.5% and 94.2% | viability, T/C (compound 10 µM): 48.1% and 50.1%
